Measurements published in US20090111801A1, “SUBSTITUTED PYRAZINONE DERIVATIVES FOR USE AS A MEDICINE” (Janssen Pharmaceutica N.V., priority 2006, published 2009).

Experiments:
hα2A receptor = target: T1, hα2A receptor (Homo sapiens, UniProt P08913); assay: Radioligand binding experiment for α2A-adrenoceptor ([3H]raulwolscine, CHO cell membranes); details: [3H]raulwolscine binding; for IC50: read-out: h-α2A pIC50 (converted)
T1 construct: expressed in transfected cells; host or cells: CHO cells, stably transfected; membrane preparation
T1 sequence (P08913 1-465): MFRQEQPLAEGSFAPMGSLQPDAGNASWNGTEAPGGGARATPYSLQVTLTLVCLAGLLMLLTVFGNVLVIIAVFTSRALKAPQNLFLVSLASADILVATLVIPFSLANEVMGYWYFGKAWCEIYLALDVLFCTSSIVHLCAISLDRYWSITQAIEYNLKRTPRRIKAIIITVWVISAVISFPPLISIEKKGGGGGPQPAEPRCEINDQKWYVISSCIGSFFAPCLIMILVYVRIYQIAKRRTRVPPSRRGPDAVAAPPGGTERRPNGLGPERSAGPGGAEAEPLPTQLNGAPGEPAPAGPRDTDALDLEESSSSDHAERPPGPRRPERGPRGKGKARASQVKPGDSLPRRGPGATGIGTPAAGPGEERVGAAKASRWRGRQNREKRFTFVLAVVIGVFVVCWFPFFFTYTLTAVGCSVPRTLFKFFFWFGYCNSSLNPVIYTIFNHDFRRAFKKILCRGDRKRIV
Description: (§1) The interaction of a compound of Formula (I) with α2-adrenoceptor receptors was assessed in in vitro radioligand binding experiments. In general, a low concentration of a radioligand with a high binding affinity for a particular receptor or transporter is incubated with a sample of a tissue preparation enriched in a particular receptor or transporter or with a preparation of cells expressing cloned human receptors in a buffered medium. During the incubation, the radioligand binds to the receptor or transporter. When equilibrium of binding is reached, the receptor bound radioactivity is separated from the non-bound radioactivity, and the receptor- or transporter-bound activity is counted. The interaction of the test compounds with the receptor is assessed in competition binding experiments. Various concentrations of the test compound are added to the incubation mixture containing the receptor- or transporter preparation and the radioligand. The test compound in proportion to its binding affinity and its concentration inhibits binding of the radioligand. The radioligand used for hα2A and hα2C receptor binding was [^3H]-raulwolscine.
(§2) CHO cells, stabile transfected with human adrenergic-α2A and α2C receptor cDNA, were cultured in Dulbecco's Modified Eagle's Medium (DMEM)/Nutrient mixture Ham's F12 (ratio 1:1)(Gibco, Gent-Belgium) supplemented with 10% heat inactivated fetal calf serum (Life Technologies, Merelbeke-Belgium) and antibiotics (100 IU/ml penicillin G, 100 μg/ml streptomycin sulphate, 110 μg/ml pyruvic acid and 100 μg/ml L-glutamine). One day before collection, cells were induced with 5 mM sodiumbutyrate. Upon 80-90% of confluence, cells were scraped in phosphate buffered saline without Ca^2+ and Mg^2+ and collected by centrifugation at 1500×g for 10 minutes. The cells were homogenised in Tris-HCl 50 mM using an Ultraturrax homogenizer and centrifuged for 10 minutes at 23,500×g. The pellet was washed once by resuspension and rehomogenization and the final pellet was resuspended in Tris-HCl, divided in 1 ml aliquots and stored at −70° C.
(§3) Membranes were thawed and re-homogenized in incubation buffer (glycylglycine 25 mM, pH 8.0). […] Filters were rinsed extensively with ice-cold rinsing buffer (Tris-HCl 50 mM pH 7.4). Filter-bound radioactivity was determined by scintillation counting in a Topcount (Packard, Meriden, Conn.) and results were expressed as counts per minute (cpm). Non-specific binding was determined in the presence of 1 μM oxymetazoline for the hα2A receptor and 1 μM spiroxatrine for hα2C receptor.
(§4) Data from assays in the presence of compound were calculated as a percentage of total binding measured in the absence of test compound. Inhibition curves, plotting percent of total binding versus the log value of the concentration of the test compound, were automatically generated, and sigmoidal inhibition curves were fitted using non-linear regression. The pIC50 values of test compounds were derived from individual curves.

hα2C receptor = target: T2, hα2C receptor (Homo sapiens, UniProt P18825); assay: Radioligand binding experiment for α2C-adrenoceptor ([3H]raulwolscine, CHO cell membranes); details: [3H]raulwolscine binding; for IC50: read-out: h-α2C pIC50 (converted)
T2 construct: expressed in transfected cells; host or cells: CHO cells, stably transfected; membrane preparation
T2 sequence (P18825 1-462): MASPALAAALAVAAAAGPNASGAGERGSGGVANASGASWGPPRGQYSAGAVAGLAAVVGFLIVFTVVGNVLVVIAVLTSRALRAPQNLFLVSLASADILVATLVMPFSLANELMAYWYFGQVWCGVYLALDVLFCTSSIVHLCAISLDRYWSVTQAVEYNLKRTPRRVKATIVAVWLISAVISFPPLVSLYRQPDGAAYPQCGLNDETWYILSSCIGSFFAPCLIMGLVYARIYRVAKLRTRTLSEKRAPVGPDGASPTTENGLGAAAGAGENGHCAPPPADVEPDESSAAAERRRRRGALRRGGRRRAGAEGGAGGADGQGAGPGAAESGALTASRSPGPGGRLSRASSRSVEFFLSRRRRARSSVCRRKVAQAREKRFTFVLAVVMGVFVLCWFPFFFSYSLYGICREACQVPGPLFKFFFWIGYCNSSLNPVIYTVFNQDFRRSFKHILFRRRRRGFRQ
Description: as §1, §2, §3, §4

5HT-Transporter = target: T3, 5HT-Transporter (Homo sapiens, UniProt P31645); assay: Binding experiment for the 5HT-transporter ([3H]paroxetine, human platelet membranes); details: [3H]paroxetine 0.5 nM; for IC50: read-out: h-5HTT pIC50 (converted)
T3 construct: Human platelet membranes (Oceanix Biosciences Corporation, Hanover, Md., USA) were thawed; tissue Oceanix Biosciences Corporation, Hanover, Md., USA; host or cells: human platelet membranes
T3 sequence (P31645 whole entry): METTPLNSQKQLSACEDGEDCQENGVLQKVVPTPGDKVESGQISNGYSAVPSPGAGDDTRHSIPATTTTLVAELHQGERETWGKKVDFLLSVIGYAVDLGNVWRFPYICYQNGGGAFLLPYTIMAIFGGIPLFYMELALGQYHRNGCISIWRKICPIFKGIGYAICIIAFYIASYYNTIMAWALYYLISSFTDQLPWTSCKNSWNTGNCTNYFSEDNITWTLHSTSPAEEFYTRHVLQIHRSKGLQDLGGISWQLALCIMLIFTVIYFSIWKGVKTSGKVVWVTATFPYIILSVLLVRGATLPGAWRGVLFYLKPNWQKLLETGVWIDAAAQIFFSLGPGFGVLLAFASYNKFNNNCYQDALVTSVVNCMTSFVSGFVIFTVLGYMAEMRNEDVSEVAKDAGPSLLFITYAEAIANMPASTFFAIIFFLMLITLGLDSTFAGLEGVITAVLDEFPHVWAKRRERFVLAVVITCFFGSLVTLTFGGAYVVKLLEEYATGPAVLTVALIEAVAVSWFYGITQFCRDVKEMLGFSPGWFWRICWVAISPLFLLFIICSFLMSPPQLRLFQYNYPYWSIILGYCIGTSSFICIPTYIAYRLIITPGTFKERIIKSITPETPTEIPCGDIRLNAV
Description: as §1
Human platelet membranes (Oceanix Biosciences Corporation, Hanover, Md., USA) were thawed, diluted in buffer (Tris-HCl 50 mM, 120 mM NaCl and 5 mM KCl) and quickly (max 3 s) homogenised with an Ultraturrax homogenizer. […] Incubation was stopped by rapid filtration of the incubation mixture over GF/B filters, pre-wetted with 0.1% polyethyleneamine, using a Filtermate196 harvester (Packard, Meriden, Conn.). Filters were rinsed extensively with ice-cold buffer and radioactivity on the filters was counted in a Topcount liquid scintillation counter (Packard, Meriden, Conn.). Data were expressed as cpm. Imipramine (at 1 μM final concentration) was used to determine the non-specific binding.
as §4

Row | IC50 (hα2A receptor) [nM] | IC50 (hα2C receptor) [nM] | IC50 (5HT-Transporter) [nM] | h-α2A pIC50 (hα2A receptor) | h-α2C pIC50 (hα2C receptor) | h-5HTT pIC50 (5HT-Transporter) | Structure (SMILES)
1 | – | – | – | 6.5 | 7.7 | 6.1 | C/C(=C\c1ccccc1)CN1CCC(Nc2nccn(-c3ccc(CNC(=O)OC(C)(C)C)cc3)c2=O)CC1 [1-91]
2 | 100 | 6.31 | 1260 | – | – | – | C/C(=C\c1ccccc1)CN1CCC(Nc2nccn(CCCN(C)C(=O)OC(C)(C)C)c2=O)CC1 [1-92]
3 | 158 | 50.1 | 1260 | – | – | – | COCC(=O)NCc1ccc(Cn2ccnc(NC3CCN(C/C(C)=C/c4ccccc4)CC3)c2=O)cc1 [1-93]
4 | – | – | – | 7.6 | 8.9 | 5.9 | COC(=O)CCNCc1cccc(-n2ccnc(NC3CCN(C/C(C)=C/c4ccccc4)CC3)c2=O)c1 [1-95]
5 | – | – | – | 7.1 | 8.6 | 6.0 | COC(=O)CCNCc1ccc(-n2ccnc(NC3CCN(C/C(C)=C/c4ccccc4)CC3)c2=O)cc1 [1-96]
6 | – | – | – | 7.5 | 8.9 | 6.0 | COC(=O)CN(C)Cc1cccc(-n2ccnc(NC3CCN(C/C(C)=C/c4ccccc4)CC3)c2=O)c1 [1-98]
7 | 79.4 | 5.01 | 1000 | – | – | – | COC(=O)CN(C)Cc1ccc(-n2ccnc(NC3CCN(C/C(C)=C/c4ccccc4)CC3)c2=O)cc1 [1-99]
8 | 126 | 25.1 | 1000 | – | – | – | COC(=O)CC(=O)NCc1ccc(Cn2ccnc(NC3CCN(C/C(C)=C/c4ccccc4)CC3)c2=O)cc1 [1-100]

The next lines start with the compound.

Row | Structure (SMILES) | IC50 (hα2A receptor) [nM] | IC50 (hα2C receptor) [nM] | IC50 (5HT-Transporter) [nM] | h-α2A pIC50 (hα2A receptor) | h-α2C pIC50 (hα2C receptor) | h-5HTT pIC50 (5HT-Transporter)
9 | C/C(=C\c1ccccc1)CN1CCC(Nc2nccn(CCCN(Cc3ccccc3)C(=O)c3ccccc3)c2=O)CC1 [1-87] | 200 | 12.6 | 1580 | – | – | –
10 | C/C(=C\c1ccccc1)CN1CCC(Nc2nccn(CCCN(C(=O)Cc3ccccc3)c3ccccc3)c2=O)CC1 [1-88] | 126 | 12.6 | 631 | – | – | –
11 | C/C(=C\c1ccccc1)CN1CCC(Nc2nccn(CCCN(Cc3ccccc3)C(=O)Cc3ccccc3)c2=O)CC1 [1-89] | 200 | 12.6 | 794 | – | – | –
12 | C/C(=C\c1ccccc1)CN1CCC(Nc2nccn(CCCN(CC(=O)c3ccccc3)Cc3ccccc3)c2=O)CC1 [1-90] | 126 | 2 | 631 | – | – | –
13 | COC(=O)CCNC(=O)Cn1ccnc(NC2CCN(C/C(C)=C/c3ccccc3)CC2)c1=O [1-94] | 158 | 3.98 | 2510 | – | – | –
14 | COC(=O)CN(C)C(=O)Cn1ccnc(NC2CCN(C/C(C)=C/c3ccccc3)CC2)c1=O [1-97] | 126 | 10 | 2510 | – | – | –
15 | CCOC(=O)CN(Cc1ccccc1)C(=O)Cn1ccnc(NC2CCN(C/C(C)=C/c3ccccc3)CC2)c1=O [1-101] | 126 | 6.31 | 1580 | – | – | –
16 | C/C(=C\c1ccccc1)CN1CCC(Nc2nccn(CC(=O)NCCN(C)C)c2=O)CC1 [1-102] | 31.6 | 2 | 3160 | – | – | –
17 | C/C(=C\c1ccccc1)CN1CCC(Nc2nccn(Cc3cccc(NCCN(C)C)c3)c2=O)CC1 [1-103] | 25.1 | 3.16 | 200 | – | – | –
